Settings: for log10 BCF / log10 biotransformation half-life (days): fish

Row | SMILES | log10 vapour pressure (mmHg) | melting point [°C] | boiling point [°C] | further results
1 | CCCCCCCCCCCCCCCC(=O)OC(C)C | -4.25 | 13.5 |  | 
2 | CCN(C(=O)n1nnn(-c2ccccc2Cl)c1=O)C1CCCCC1 | -9.43 | 79 |  | 
3 | C[N+](C)(C)OP(=O)([O-])OP(=O)(O)OC[C@H]1O[C@@H](n2ccc(N)nc2=O)[C@H](O)[C@@H]1O |  |  |  | ready biodegradability: readily biodegradable
4 | CCNC(=O)C(=O)NCC |  | 175 |  | 
5 | CCCCCCCCCCCCN | -2.09 | 28.3 | 259 | 
6 | C=CC=CC=C | 1.95 | -12 | 78 | 
7 | Clc1cc(Cl)c2cc(Cl)ccc2c1 |  |  |  | log10 BCF: 4.43
8 | CCCCCCCCCC(=O)OC | -1.43 | -18 | 224 | 
9 | CCCCC(O)CCCC |  |  | 193 | 
10 | Cc1cccc(Br)c1 | 0.185 | -39.8 | 184 | 
11 | COCC(=O)O | -0.839 | 7.7 | 204 | 
12 | COCCO | 0.978 |  | 124 | log10 Henry constant (atm·m³/mol): -6.48; ready biodegradability: readily biodegradable
13 | Brc1cncc2ccccc12 |  | 41.5 | 282 | 
14 | COc1ccco1 |  |  | 110 | 
15 | CC(O)CN (stereo not given) | -0.328 | 25 | 160 | 
16 | CC(C)CC(=O)Cl |  |  | 114 | 
17 | COC(=O)C(Cl)(Cl)Cl |  | -17.5 | 154 | 
18 | SCCS | 0.749 | -41.2 | 146 | 
19 | CCCCC(=O)Cl |  | -110 | 109 | 
20 | CCCCCCCCCCCCCCCCCCCc1ccccc1 |  | 40 | 419 | 
21 | CCCB(O)O |  | 107 |  | 
22 | CCCCC1C(=O)NN(c2ccccc2)C1=O (stereo not given) |  | 102 |  | 

Row | SMILES | log10 vapour pressure (mmHg) | melting point [°C] | boiling point [°C] | further results
23 | CC=C(CC)C(=O)NC(N)=O |  | 198 |  | 
24 | ClCCBr | 1.52 | -16.7 | 107 | log10 Henry constant (atm·m³/mol): -3.04
25 | CCCC(C(N)=O)n1nnc2ccccc21 (stereo not given) |  | 125 |  | 
26 | CCCCCCCCCCCCCCCCCCC1CO1 (stereo not given) |  |  |  | ready biodegradability: readily biodegradable
27 | O=CNC(O)C(Cl)(Cl)Cl (stereo not given) |  | 120 |  | 
28 | C[Si](C)(C)O[Si](C)(C)O[Si](C)(C)O[Si](C)(C)C | -0.426 | -76 | 194 | log10 Henry constant (atm·m³/mol): 1.23
29 | CCCCCCCCCCl | -0.574 | -39.4 | 204 | 
30 | C1CCOC1 | 2.21 | -108 | 65 | log10 Henry constant (atm·m³/mol): -4.15; log10 Koa: 2.86; ready biodegradability: readily biodegradable
31 | OC[C@H]1O[C@@H](n2cnc3cncnc32)[C@H](O)[C@@H]1O |  | 181 |  | 
32 | COC(=O)c1cc(C(=O)OC)c(C(=O)OC)cc1C(=O)OC |  | 144 |  | 
33 | Clc1ccc(Cl)c2ncccc12 |  | 97.5 |  | 
34 | CCC1(C2=CCCCCC2)C(=O)NC(=O)NC1=O |  | 174 |  | 
35 | CC(/C=C/C=C(\C)C(=O)O)=C\C=C\C=C(C)\C=C\C=C(/C)C(=O)O |  | 286 |  | 
36 | CN1CN(C)CN(C)C1 |  | -27 | 163 | 
37 | Clc1ccc2c(c1)Oc1c(Cl)c(Cl)c(Cl)c(Cl)c1O2 | -9.18 | 195 |  | log10 Koa: 10.7
38 | COCCN |  |  | 95 | 
39 | C=CCCC | 2.8 | -165 | 29.9 | log10 Koa: 1.93
40 | CCCCOCc1ccco1 |  |  | 190 | 
41 | C=C(Br)c1ccccc1 |  | -44 |  | ready biodegradability: not readily biodegradable
42 | ClCCCCCCCCCCCl |  | 15.6 |  | 
43 | CC(=O)NC12CC3CC(CC(C3)C1)C2 |  | 148 |  | 
44 | c1ccc2c(c1)CCN2 |  |  | 229 | 

Row | SMILES | log10 vapour pressure (mmHg) | melting point [°C] | boiling point [°C] | further results
45 | CC(CCCl)OCCCl (stereo not given) |  |  | 195 | 
46 | CN(C)C(=O)Nc1ccccc1 | -4.43 | 134 |  | log10 Koc (L/kg): 1.4; ready biodegradability: readily biodegradable
47 | Clc1ccc(-c2cccc(Cl)c2Cl)c(Cl)c1 |  |  |  | log10 Henry constant (atm·m³/mol): -3.85; log10 biotransformation half-life (days): 2.62
48 | O=C(NNc1ccccc1)NNc1ccccc1 |  | 170 |  | 
49 | CCC(C)=O | 1.96 | -86.6 |  | log10 Henry constant (atm·m³/mol): -4.24; log10 Koa: 2.71; ready biodegradability: readily biodegradable
50 | OCC(F)(F)C(F)F | 1.17 | -15 | 110 | log10 Henry constant (atm·m³/mol): -5.2
51 | CCCCCCCCCCCCCCCC(=O)OC[C@@H](O)[C@H]1OC[C@H](O)[C@H]1O |  |  |  | ready biodegradability: readily biodegradable
52 | CCCC(C)Br (stereo not given) | 1.33 | -95.5 | 117 | 
53 | COc1ccccc1C(=O)O | -4.8 | 101 |  | ready biodegradability: readily biodegradable
54 | CCN(CC)CCOC(=O)c1ccc(N)cc1Cl.Cl |  | 177 |  | 
55 | CCCCC1CCCCC1 | 0.119 | -74.7 | 181 | 
56 | c1ccc(C2c3ccccc3-c3ccccc32)cc1 |  | 147 |  | 
57 | COc1ccc(C(=O)c2ccccc2C(=O)O)cc1 |  | 146 |  | 
58 | CCCCCC[Si](Cl)(CCCCCC)CCCCCC |  |  |  | ready biodegradability: not readily biodegradable
59 | CC[Si](OC)(OC)OC |  |  | 124 | 
60 | C=CF | 4.3 | -160 | -72 | 
61 | O=C(NC(=O)c1c(F)cccc1F)Nc1ccc(CO/N=C(/c2ccc(Cl)cc2)C2CC2)cc1 | -9.39 |  |  | 
62 | O=C1c2cc([N+](=O)[O-])ccc2-c2ccc([N+](=O)[O-])cc21 |  | 294 |  | 
63 | CCC(C)ON=O (stereo not given) |  |  | 68.5 | 
64 | CC/C(=C(\c1ccccc1)c1ccc(OCCN(C)C)cc1)c1ccccc1 |  | 97 |  | 
65 | C=C(C)C(=C)C | 2.18 | -76 | 68.8 | 
66 | NNC(=O)c1ccncc1 |  | 171 |  | 

Row | SMILES | log10 vapour pressure (mmHg) | melting point [°C] | boiling point [°C] | further results
67 | Oc1ccc(Cl)cc1Cc1cc(Cl)ccc1O | -10 | 178 |  | ready biodegradability: not readily biodegradable; log10 BCF: 2.28; log10 biotransformation half-life (days): -0.51
68 | COc1cc(NC(=O)C(N=Nc2ccc(-c3ccc(N=NC(C(C)=O)C(=O)Nc4cc(OC)c(Cl)cc4OC)c(Cl)c3)cc2Cl)C(C)=O)c(OC)cc1Cl (stereo not given) |  |  |  | ready biodegradability: not readily biodegradable
69 | NC(=O)C1CCN(CCCN2c3ccccc3Sc3ccc(Cl)cc32)CC1 |  | 139 |  | 
70 | CC(C)(C)c1cc(C(=O)O)c(O)c(C(C)(C)C)c1 |  |  |  | ready biodegradability: not readily biodegradable
71 | CCCCCCN | 0.954 | -22.9 | 133 | log10 Henry constant (atm·m³/mol): -4.57; ready biodegradability: readily biodegradable
72 | CC1(C)[C@H](C(=O)O[C@H](C#N)c2cccc(Oc3ccccc3)c2)[C@@H]1/C=C(\Cl)C(F)(F)F (single isomer, unassigned) |  | 49.2 |  | 
73 | Oc1ccccc1-c1nc2ccccc2o1 |  | 124 | 338 | 
74 | CCCOC(=O)c1cc(O)c(O)c(O)c1 |  | 130 |  | 
75 | CCCOC(N)=O | -1.26 | 60 | 196 | 
76 | c1ccoc1 | 2.78 | -85.6 | 31.5 | ready biodegradability: not readily biodegradable; log10 BCF: 0.7; log10 biotransformation half-life (days): -0.84
77 | Brc1ccccc1-c1ccccc1 |  | 1.5 | 297 | 
78 | Cc1cc2ccccc2cn1 |  | 68 | 249 | 
79 | CCSCC[C@H](N)C(=O)O |  | 195 |  | 
80 | Cc1cccc2c1C=CC2 |  |  | 209 | 
81 | FCC(F)(F)C(F)F | 2.88 | -82 | 26 | 
82 | O=CCc1ccccc1 | -0.407 | 33.5 | 195 | 
83 | CCc1cccnc1 | 0.403 | -76.9 | 165 | log10 Henry constant (atm·m³/mol): -4.98
84 | CCCCOC(=O)c1ccc([N+](=O)[O-])cc1 |  | 35.5 |  | 
85 | CCCS(=O)CCC |  | 22.5 |  | 
86 | CN1CCN(C)CC1 |  |  | 131 | 

— the OPERA property sets (Mansouri et al. 2018)
